Measurements: PubChem BioAssay (NCI)
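The compound was tested at five concentrations on cells cultured in 96-well plates, with a 48-hour exposure period. TGI is the concentration that stops growth completely.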

How the values were obtained:
Experiment in all cases: NCI tumour cell line growth inhibition, 48 h
786-0 renal = tested on: 786-0 renal
UACC-257 melanoma = tested on: UACC-257 melanoma
MOLT-4 leukemia = tested on: MOLT-4 leukemia
NCI-H226 lung = tested on: NCI-H226 lung
M19-MEL melanoma = tested on: M19-MEL melanoma
KM20L2 colon = tested on: KM20L2 colon
A549 NSCLC = tested on: A549 NSCLC
LOX IMVI melanoma = tested on: LOX IMVI melanoma
SK-MEL-2 melanoma = tested on: SK-MEL-2 melanoma
RXF 393 renal = tested on: RXF 393 renal
UACC-62 melanoma = tested on: UACC-62 melanoma
SN12C renal = tested on: SN12C renal
OVCAR-3 ovarian = tested on: OVCAR-3 ovarian
HOP-62 NSCLC = tested on: HOP-62 NSCLC
M14 melanoma = tested on: M14 melanoma
XF 498 CNS = tested on: XF 498 CNS
HL-60(TB) leukemia = tested on: HL-60(TB) leukemia
CAKI-1 renal = tested on: CAKI-1 renal
EKVX NSCLC = tested on: EKVX NSCLC
NCI-H460 lung = tested on: NCI-H460 lung
HCC-2998 colon = tested on: HCC-2998 colon
COLO 205 colon = tested on: COLO 205 colon
NCI-H23 lung = tested on: NCI-H23 lung
HT29 colon = tested on: HT29 colon
OVCAR-8 ovarian = tested on: OVCAR-8 ovarian
K-562 leukemia = tested on: K-562 leukemia
SNB-78 CNS = tested on: SNB-78 CNS
OVCAR-5 ovarian = tested on: OVCAR-5 ovarian
RPMI-8226 leukemia = tested on: RPMI-8226 leukemia
SF-295 CNS = tested on: SF-295 CNS
UO-31 renal = tested on: UO-31 renal
NCI-H522 lung = tested on: NCI-H522 lung
SR leukemia = tested on: SR leukemia
HOP-18 NSCLC = tested on: HOP-18 NSCLC
CCRF-CEM leukemia = tested on: CCRF-CEM leukemia
OVCAR-4 ovarian = tested on: OVCAR-4 ovarian
LXFL 529 NSCLC = tested on: LXFL 529 NSCLC
SNB-19 CNS = tested on: SNB-19 CNS
U251 CNS = tested on: U251 CNS
SW-620 colon = tested on: SW-620 colon
SK-MEL-5 melanoma = tested on: SK-MEL-5 melanoma
KM12 colon = tested on: KM12 colon
HCT-15 colon = tested on: HCT-15 colon
ACHN renal = tested on: ACHN renal
SK-MEL-28 melanoma = tested on: SK-MEL-28 melanoma
DLD-1 colon = tested on: DLD-1 colon
SF-268 CNS = tested on: SF-268 CNS
MALME-3M melanoma = tested on: MALME-3M melanoma
HCT-116 colon = tested on: HCT-116 colon
IGROV1 ovarian = tested on: IGROV1 ovarian
SK-OV-3 ovarian = tested on: SK-OV-3 ovarian
SF-539 CNS = tested on: SF-539 CNS
TK-10 renal = tested on: TK-10 renal
SNB-75 CNS = tested on: SNB-75 CNS
DMS 273 small cell lung = tested on: DMS 273 small cell lung
DMS 114 small cell lung = tested on: DMS 114 small cell lung

Measured: TGI

CCOC(=O)/C(C1=NCCN1C)=C(\O)c1ccccc1
not listed: SK-OV-3 ovarian | SF-539 CNS | TK-10 renal | SNB-75 CNS | DMS 273 small cell lung | DMS 114 small cell lung
> 100 µM: all other assays above

COP12(OC)NC(=O)OC1(C(F)(F)F)c1ccccc1O2 (centres undefined)
not listed: KM20L2 colon | HOP-62 NSCLC | CAKI-1 renal | EKVX NSCLC | HCC-2998 colon | COLO 205 colon | OVCAR-5 ovarian | RPMI-8226 leukemia | UO-31 renal | SR leukemia | U251 CNS | SW-620 colon
> 100 µM: all other assays above
